Reference: US7312188B2, “Peptide derivatives having β-secretase inhibitory activity” (priority 2003, dated 2007)
Numbered stars: 1 amine (or outer) side, 2 acyl side, 3 side chain; on linkers, the order of the positions; unused ones are H or OH. Square brackets hold non-standard residues; d marks the D form. Peptide text beside a SMILES is read from it. * marks the point of attachment. β3hPhe(2R-OH) = O=C([C@H](O)[C@H](Cc1ccccc1)N[*:1])[*:2]; X1 = O=C(c1ccc(O)c(O)c1)*; Dap = NC[C@H](N)C(=O)O

Target: T1, recombinant human BACE-1 (rhBACE-1) (Homo sapiens, UniProt P56817)
T1 construct: expressed as only an extracellular region (amino acid 1-460 residues) of recombinant human β-secretase; His tag (C); purchased R&D systems (Minneapolis, Minn.); host or cells: murine myeloma cell line NS0
Assay: BACE1 inhibitory activity, reverse phase HPLC quantitation of N-terminal fragment of fluorogenic substrate
Format: biochemical
Conditions: 1 μL of inhibitor solution in DMSO (100 μM) in 50 μL reaction; MES buffer pH 5.0; 37° C., 60 minutes
Text: Experiment Regarding Measurement of BACE1 Inhibitory Activity
Enzyme Used in Measurement
As an enzyme having β-secretase activity, recombinant human BACE-1 (rhBACE-1) purchased from R&D systems (Minneapolis, Minn.) was used. rhBACE-1 is expressed as only an extracellular region (amino acid 1-460 residues) of recombinant human β-secretase, with a His tag at its carboxyl terminal in murine myeloma cell line, NS0. Purified secreted rhBACE1 is a mixture of a pro entity (about 75 kDa) and a mature entity (about 72 kDa).
Assessment of Enzyme Inhibitory Activity
Enzyme inhibitory activity of an inhibitor was assessed by quantitating an N-terminal fragment produced aftercleaving the substrate with BACE1 by reverse HPLC using (7-methoxycoumarin-4-yl)acetyl-[…]2,4-dinitrophenyl)-Arg-Arg-NH2 purchased from Peptide Institute (Osaka, Japan) as a substrate for BACE1. To 40 μL of 62.5 mM 2-(N-morpholino)ethansulfonic acid (MES)-CH3COOH—NaOH buffer (pH 5.0), were added 1 μL of a solution of an inhibitor diluted with DMSO (100 μM), 4 μL of rhBACE-1 (6.25 ng/μL), and 5 μL of an aqueous solution (50% DMSO) of 250 μM substrate (7-methoxycoumarin-4-yl)acetyl-[…]2,4-dinitrophenyl)-Arg-Arg-NH2 to initiate an enzyme reaction. After incubation at 37° C. for 60 minutes, 20 μL of 20% trichloroacetic acid was added to stop the reaction. And, inhibition % was calculated by measuring a fluorescent intensity of the N-terminal fragment (Ex, 328 nm; Em, 393 nm) using reverse phase HPLC (linear gradient of MeCN in aqueous TFA; flow rate, 1.0 mL/min).
BACE1 Inhibitory Activity
Enzyme inhibitory activity of an inhibitor was assessed by quantitating a N-terminal fragment produced after cleavage of a substrate with BACE1 by reverse phase HPLC using (7-methoxycoumarin-4-yl)acetyl-[…]2,4-dinitrophenyl)-Arg-Arg-NH2 purchased from Peptide Institute (Osaka, Japan) as a substrate for BACE1. Recombinant human BACE-1 purchased from R&D systems (Minneapolis, Minn.) was used. To 40 μL of 62.5 mM 2-(N-morpholino)ethansulfonic acid (MES)-CH3COOH—NaOH buffer (pH 5.0), were added 1 μL of a solution of an inhibitor diluted with DMSO (100 μM), 4 μL of BACE1 (6.25 ng/μL), and 5 μL of an aqueous solution (50% DMSO) of 250 μM substrate (7-methoxycoumarin-4-yl)acetyl-[…]2,4-dinitrophenyl)-Arg-Arg-NH2 to initiate an enzyme reaction. After incubation at 37° C. for 60 minutes, 20 μL of 20% trichloroacetic acid was added to stop a reaction. Inhibition % was calculated by measuring a fluorescent intensity of the N-terminal fragment (Ex, 328 nm; Em, 393 nm) using reverse phase HPLC (linear gradient of MeCN in aqueous TFA; flow rate, 1.0 mL/min).

T1 sequence (P56817 22-460 limits assumed): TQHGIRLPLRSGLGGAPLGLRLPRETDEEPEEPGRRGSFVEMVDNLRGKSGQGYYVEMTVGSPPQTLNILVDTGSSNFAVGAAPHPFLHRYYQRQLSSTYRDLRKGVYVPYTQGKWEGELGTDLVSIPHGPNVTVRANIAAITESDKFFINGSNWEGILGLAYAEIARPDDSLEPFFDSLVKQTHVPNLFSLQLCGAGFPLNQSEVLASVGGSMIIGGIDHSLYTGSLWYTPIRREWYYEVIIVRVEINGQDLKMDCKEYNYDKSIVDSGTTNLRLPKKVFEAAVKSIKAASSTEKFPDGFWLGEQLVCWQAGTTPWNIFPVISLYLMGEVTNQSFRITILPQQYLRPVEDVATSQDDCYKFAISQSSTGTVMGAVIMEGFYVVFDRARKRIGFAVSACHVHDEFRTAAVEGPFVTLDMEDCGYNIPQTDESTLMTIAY

Structure (SMILES) | inhibition at 2 µM | inhibition at 100 µM (stock)
CC(C)C[C@H](NC(=O)[C@@H](NC(=O)[C@@H](N)CNC(=O)c1nnn[nH]1)C(C)C)C(=O)N[C@@H](Cc1ccccc1)[C@@H](O)C(=O)Nc1cccc(C(N)=O)c1 [Example 124] | 97.3% | –
CC(C)C[C@H](NC(=O)[C@@H](NC(=O)[C@@H](N)CNC(=O)C(=O)O)C(C)C)C(=O)N[C@@H](CC1CCCCC1)[C@@H](O)C(=O)Nc1cccc(C(=O)O)c1 [Example 126] | 98.9% | –
CC(C)C[C@H](NC(=O)[C@@H](NC(=O)[C@@H](N)CNC(=O)c1nnn[nH]1)C(C)C)C(=O)N[C@@H](Cc1ccccc1)[C@@H](O)C(=O)Nc1cc(C(=O)O)cc(C(=O)O)c1 [Example 127] | 100% | –
Cc1c(NC(=O)[C@H](O)[C@H](Cc2ccccc2)NC(=O)[C@H](CC(C)C)NC(=O)[C@@H](NC(=O)[C@@H](N)CCC(=O)O)C(C)C)cccc1C(=O)O [Example 128] | 53.6% | –
COc1cc(NC(=O)[C@H](O)[C@H](Cc2ccccc2)NC(=O)[C@H](CC(C)C)NC(=O)[C@@H](NC(=O)[C@@H](N)CCC(=O)O)C(C)C)cc(OC)c1 [Example 129] | 61% | –
CC(C)C[C@H](NC(=O)[C@@H](NC(=O)[C@@H](N)CCC(=O)O)C(C)C)C(=O)N[C@@H](Cc1ccccc1)[C@@H](O)C(=O)Nc1cccc(O)c1 [Example 130] | 57.2% | –
CSC[C@H](NC(=O)[C@@H](NC(=O)[C@@H](N)CCC(=O)O)C(C)C)C(=O)N[C@@H](Cc1ccccc1)[C@@H](O)C(=O)Nc1cccc(C(=O)O)c1 [Example 131] | 74.1% | –
CCSC[C@H](NC(=O)[C@@H](NC(=O)[C@@H](N)CCC(=O)O)C(C)C)C(=O)N[C@@H](Cc1ccccc1)[C@@H](O)C(=O)Nc1cccc(C(=O)O)c1 [Example 132] | 68.1% | –
CC(C)C[C@H](NC(=O)[C@@H](NC(=O)[C@@H](N)CNC(=O)c1ccc(O)c(O)c1)C(C)C)C(=O)N[C@@H](Cc1ccccc1)[C@@H](O)C(=O)N[C@@H](CC(=O)O)C(=O)N[C@@H](C)C(=O)N[C@@H](CCC(=O)O)C(=O)O [Example 133] (H-[Dap](X1)VL[β3hPhe(2R-OH)]DAE-OH) | – | 71.5%
CC(C)[C@H](NC(=O)[C@@H](N)CNC(=O)C(=O)O)C(=O)N[C@@H](CC1CCCCC1)C(=O)N[C@@H](Cc1ccccc1)[C@@H](O)C(=O)Nc1cc(C(=O)O)cc(C(=O)O)c1 [Example 134] | 99.6% | –
CC(C)[C@H](NC(=O)[C@@H](N)CNC(=O)c1nnn[nH]1)C(=O)N[C@@H](CC1CCCCC1)C(=O)N[C@@H](Cc1ccccc1)[C@@H](O)C(=O)Nc1cc(C(=O)O)cc(C(=O)O)c1 [Example 135] | 99.8% | –
CC(C)[C@H](NC(=O)[C@@H](N)CNC(=O)c1nnn[nH]1)C(=O)N[C@@H](CC1CCCCC1)C(=O)N[C@@H](Cc1ccccc1)[C@@H](O)C(=O)Nc1cccc(C(=O)O)c1 [Example 137] | 99.5% | –
CC(C)C[C@H](NC(=O)[C@@H](NC(=O)[C@@H](N)CCC(=O)O)C(C)C)C(=O)N[C@@H](Cc1ccccc1)[C@@H](O)C(=O)Nc1cccc(C(=O)OCC(F)(F)F)c1 [Example 138] | 59.6% | –
CCCC[C@H](NC(=O)[C@@H](NC(=O)[C@@H](N)CCC(=O)O)C(C)C)C(=O)N[C@@H](Cc1ccccc1)[C@@H](O)C(=O)Nc1cccc(C(=O)O)c1 [Example 141] | 67.5% | –
CC(C)C[C@H](NC(=O)[C@@H](NC(=O)[C@@H](N)CNC(=O)c1cc(=O)[nH]c(=O)[nH]1)C(C)C)C(=O)N[C@@H](Cc1ccccc1)[C@@H](O)C(=O)Nc1cccc(C(=O)O)c1 [Example 142] | 89.8% | –
CC(C)C[C@H](NC(=O)[C@@H](NC(=O)[C@@H](N)CNC(=O)c1ccc[nH]1)C(C)C)C(=O)N[C@@H](Cc1ccccc1)[C@@H](O)C(=O)Nc1cccc(C(=O)O)c1 [Example 143] | 69% | –
Cc1c(O)cccc1C(=O)NC[C@H](N)C(=O)N[C@H](C(=O)N[C@@H](CC(C)C)C(=O)N[C@@H](Cc1ccccc1)[C@@H](O)C(=O)Nc1cccc(C(=O)O)c1)C(C)C [Example 145] | 50.5% | –
CC(C)C[C@H](NC(=O)[C@@H](NC(=O)C(N)CNC(=O)c1ccccc1O)C(C)C)C(=O)N[C@@H](Cc1ccccc1)[C@@H](O)C(=O)Nc1cccc(C(=O)O)c1 (some centres unmarked) [Example 146] | – | 74.7%

Structure (SMILES) | inhibition at 2 µM | inhibition at 100 µM (stock)
Cc1cccc(C(=O)NC[C@H](N)C(=O)N[C@H](C(=O)N[C@@H](CC(C)C)C(=O)N[C@@H](Cc2ccccc2)[C@@H](O)C(=O)Nc2cccc(C(=O)O)c2)C(C)C)c1O [Example 147] | 59.5% | –
CC(C)C[C@H](NC(=O)[C@@H](NC(=O)[C@@H](N)CNC(=O)c1cc(O)cc(O)c1)C(C)C)C(=O)N[C@@H](Cc1ccccc1)[C@@H](O)C(=O)Nc1cccc(C(=O)O)c1 [Example 148] | – | 93.8%
CC(C)C[C@H](NC(=O)[C@@H](NC(=O)[C@@H](N)CCC(=O)O)C(C)C)C(=O)N[C@@H](Cc1ccccc1)[C@@H](O)C(=O)Nc1cc(Cl)c(O)c(Cl)c1 [Example 149] | 80.1% | –
CC(C)C[C@H](NC(=O)[C@@H](NC(=O)[C@@H](N)CNC(=O)c1cccc(O)c1)C(C)C)C(=O)N[C@@H](Cc1ccccc1)[C@@H](O)C(=O)Nc1cccc(C(=O)O)c1 [Example 150] | 90.8% | –
CC(C)C[C@H](NC(=O)[C@@H](NC(=O)[C@@H](N)CCC(=O)O)C(C)(C)C)C(=O)N[C@@H](Cc1ccccc1)[C@@H](O)C(=O)Nc1cccc(C(=O)O)c1 [Example 151] | 57% | –
CC[C@H](C)[C@H](NC(=O)[C@@H](NC(=O)[C@@H](N)CCC(=O)O)C(C)C)C(=O)N[C@@H](Cc1ccccc1)[C@@H](O)C(=O)Nc1cccc(C(=O)O)c1 [Example 153] | 65.8% | –
CC(C)C[C@H](NC(=O)[C@@H](NC(=O)[C@@H](N)CNC(=O)c1ccc(O)cc1)C(C)C)C(=O)N[C@@H](Cc1ccccc1)[C@@H](O)C(=O)Nc1cccc(C(=O)O)c1 [Example 154] | 69.9% | –
CC(C)C[C@H](NC(=O)[C@@H](NC(=O)[C@@H](N)CCC(=O)O)C(C)C)C(=O)N[C@@H](Cc1ccccc1)[C@@H](O)C(=O)NC1CCCC(C(=O)O)C1 (some centres unmarked) [Example 155] | – | 69.7%
CC(C)C[C@H](NC(=O)[C@@H](NC(=O)[C@@H](N)CCC(=O)O)C(C)C)C(=O)N[C@@H](Cc1ccccc1)[C@@H](O)C(=O)Nc1cc(Cl)cc(Cl)c1 [Example 156] | – | 78.3%
CCOC(=O)COc1c(Cl)cc(NC(=O)[C@H](O)[C@H](Cc2ccccc2)NC(=O)[C@H](CC(C)C)NC(=O)[C@@H](NC(=O)[C@@H](N)CCC(=O)O)C(C)C)cc1Cl [Example 158] | 66.1% | –
CC(C)[C@H](NC(=O)[C@@H](N)CCC(=O)O)C(=O)N[C@@H](Cc1cc2ccccc2[nH]1)C(=O)N[C@@H](Cc1ccccc1)[C@@H](O)C(=O)Nc1cccc(C(=O)O)c1 [Example 160] | 71.3% | –
CCC[C@H](NC(=O)[C@@H](NC(=O)[C@@H](N)CCC(=O)O)C(C)C)C(=O)N[C@@H](Cc1ccccc1)[C@@H](O)C(=O)Nc1cccc(C(=O)O)c1 [Example 161] | 64.7% | –
CC(C)C[C@H](NC(=O)[C@@H](NC(=O)[C@@H](N)CCC(=O)O)C(C)C)C(=O)N[C@@H](Cc1ccccc1)[C@@H](O)C(=O)NCc1ccc(Cl)c(Cl)c1 [Example 162] | 71.5% | –
CC(C)C[C@H](NC(=O)[C@@H](NC(=O)[C@@H](N)CCC(=O)O)C(C)C)C(=O)N[C@@H](Cc1ccccc1)[C@@H](O)C(=O)Nc1cc(Cl)c(OCC(=O)O)c(Cl)c1 [Example 163] | 88.3% | –
CC(C)[C@H](NC(=O)[C@@H](N)CCC(=O)O)C(=O)N[C@H](C(=O)N[C@@H](Cc1ccccc1)[C@@H](O)C(=O)Nc1cccc(C(=O)O)c1)c1ccccc1 [Example 164] | 64.1% | –
CC(C)[C@H](NC(=O)[C@@H](N)CCC(=O)O)C(=O)N[C@@H](Cc1cccc2ccccc12)C(=O)N[C@@H](Cc1ccccc1)[C@@H](O)C(=O)Nc1cccc(C(=O)O)c1 [Example 165] | 73.7% | –
CC(C)[C@H](NC(=O)[C@@H](N)CCC(=O)O)C(=O)N[C@@H](CCc1ccccc1)C(=O)N[C@@H](Cc1ccccc1)[C@@H](O)C(=O)Nc1cccc(C(=O)O)c1 [Example 166] | 84.9% | –
